# Assay results published in patent US11827628B2, “Compositions and methods for inhibition of the JAK pathway” (Rigel Pharmaceuticals, Inc., priority 2005, dated 2023).
# Where a name gives a salt, the structure may show the parent alone. Read-outs that look alike come from different tables or passages of the source.
# Test system: IL-4 stimulated expression of CD23 in human Ramos B cells (JAK-1 and JAK-3)
# Assay: Assay for Ramos B-Cell Line Stimulated with IL-4 (CD23 upregulation, FACS)
# Assay type: cell-based
# Settings: read-out: IC50, Example 41
# How it was run: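 Human Ramos B cells in RPMI with 5% serum were pre-incubated with compound or DMSO for 1 h at 37 °C, then stimulated with IL-4 at a final 50 units/mL for 20-24 h. CD23 upregulation was measured by anti-CD23-PE staining and flow cytometry, and IC50 values were calculated.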
# [1] = Homo sapiens, Ramos, Ramos B cells stimulated with IL-4, CD23 expression by FACS
# [2] = Ramos B-cell line stimulated with IL-4, CD23 expression by FACS
# [3] = Homo sapiens, Ramos, Ramos B-cell line stimulated with IL-4, CD23 expression by FACS
# [4] = Ramos B cells stimulated with IL-4, CD23 expression by FACS
# [5] = Ramos B-cell line stimulated with IL-4, CD23 expression by FACS, sodium salt
smiles,measurement,setting,value
"NS(=O)(=O)c1ccc(Nc2ncc(F)c(Nc3ccc(C(=O)N4CCSCC4)cc3)n2)cc1 [IX-36, N2-(4-Aminosulfonylphenyl)-5-fluoro-N4-[4-(4-thiomorpholinyl)carbonylphenyl]-2,4-pyrimidinediamine]",IC50,[1],1040 nM
"CCCN(c1ccc(OC)c(Cl)c1)c1nc(Nc2ccc(C)c(S(N)(=O)=O)c2)ncc1F [VI-22, N2-(3-Aminosulfonyl-4-methylphenyl)-N4-(3-chloro-4-methoxyphenyl)-5-fluoro-N4-propyl-2,4-pyrimidinediamine]",IC50,[1],663 nM
"Cc1cnc(Nc2ccc(S(N)(=O)=O)cc2)nc1Nc1ccc(OCc2ccccn2)cc1 [Compound I-181, N2-(4-Aminosulfonylphenyl)-5-methyl-N4-[4-(2-pyridinyl)methyleneoxyphenyl]-2,4-pyrimidinediamine]",IC50,[2],13 nM
"Cc1ccc(Nc2nc(Nc3cccc(S(N)(=O)=O)c3)ncc2F)cc1OCC(=O)N1CCOCC1 [Compound I-208, N2-(3-Aminosulfonylphenyl)-5-fluoro-N4-[4-methyl-3-(2-morpholinocarbonylmethyleneoxy)phenyl]-2,4-pyrimidinediamine]",IC50,[2],1400 nM
"CC(=O)NS(=O)(=O)c1cccc(Nc2ncc(F)c(Nc3ccc(OCc4cc(C)on4)cc3)n2)c1 [Compound I-232, N2-(3-Acetamidosulfonylphenyl)-5-fluoro-N4-[4-(5-methylisoxazol-3-yl)methyleneoxyphenyl]-2,4-pyrimidinediamine]",IC50,[2],1430 nM
"CC(=O)NS(=O)(=O)c1cc(Nc2ncc(F)c(Nc3ccc(OCC#N)cc3)n2)ccc1C [Compound I-36, N2-(3-Acetylaminosulfonyl-4-methyl)phenyl-N4-(4-cyanomethyleneoxy)phenyl-5-fluoro-2,4-pyrimidinediamine]",IC50,[2],8800 nM
"N#CCOc1ccc(Nc2nc(Nc3cccc(S(N)(=O)=O)c3)ncc2F)cc1Cl [Compound I-42, N2-(3-Aminosulfonylphenyl)-N4-(3-chloro-4-cyanomethoxyphenyl)-5-fluoro-2,4-pyrimidinediamine]",IC50,[3],24.1 nM
"COc1ccc(Nc2nc(Nc3cccc(S(N)(=O)=O)c3)ncc2C#C[Si](C)(C)C)cc1Cl [VI-28, N2-(3-Aminosulfonylphenyl)-N4-(3-chloro-4-methoxyphenyl)-5-trimethylsilylacetylene-2,4-pyrimidinediamine]",IC50,[4],754 nM
"Cc1ccc2cccc(Nc3nc(Nc4cccc(S(N)(=O)=O)c4)ncc3F)c2n1 [VII-81, N2-(3-Aminosulfonylphenyl)-5-fluoro-N4-(2-methylquinolin-8-yl)-2,4-pyrimidinediamine]",IC50,[1],3070 nM
"COc1cc(Nc2nc(Nc3ccc(C)c(S(N)(=O)=O)c3)ncc2F)cc(OCC#N)c1OC [Compound I-2, N2-(3-Aminosulphonyl-4-methylphenyl)-N4-(3-cyanomethoxy-4,5-dimethoxyphenyl)-5-fluoro-2,4-pyrimidinediamine]",IC50,[3],532 nM
"CC(=O)NS(=O)(=O)c1cccc(Nc2ncc(F)c(Nc3ccc(OCc4cc(C)on4)cc3)n2)c1 [Compound I-243, N2-(3-Acetamidosulfonylphenyl)-5-fluoro-N4-[4-(5-methylisoxazol-3-yl)methyleneoxyphenyl]-2,4-pyrimidinediamine sodium salt]",IC50,[5],917 nM
"CCOC(=O)CN(c1ccc(OC)c(Cl)c1)c1nc(Nc2cccc(S(N)(=O)=O)c2)ncc1C(=O)OCC [VI-24, N2-(3-Aminosulfonylphenyl)-5-carboethoxy-N4-(N-carboethoxymethylene-N-3-chloro-4-methoxyphenyl)-2,4-pyrimidinediamine]",IC50,[4],8620 nM
"COC(=O)CNS(=O)(=O)c1cccc(Nc2ncc(F)c(Nc3ccc(Cl)c(Cl)c3)n2)c1 [VI-8, N4-(3,4-Dichlorophenyl)-5-fluoro-N2-[3-(N-methoxycarbonylmethylene)aminosulfonylphenyl]-2,4-pyrimidinediamine]",IC50,[4],2280 nM
"CC(=O)N1CCN(C(=O)c2ccc(Nc3nc(Nc4cccc(S(N)(=O)=O)c4)ncc3F)cc2)CC1 [IX-23, N4-[4-(1-Acetyl-4-piperizinyl)carbonylphenyl]-N2-(3-Aminosulfonylphenyl)-5-fluoro-2,4-pyrimidinediamine]",IC50,[4],9580 nM
"NC(=O)NCCc1ccc(Nc2nc(Nc3cccc(S(N)(=O)=O)c3)ncc2F)cc1 [VI-72, N4-{4-[2-(Aminocarbonylamino)ethyl]phenyl}-N2-(3-aminosulfonylphenyl)-5-fluoro-2,4-pyrimidinediamine]",IC50,[1],455 nM
"NC(=O)CCc1ccc(Nc2nc(Nc3ccc(S(N)(=O)=O)cc3)ncc2F)cc1 [III-49, N4-[4-(2-Aminocarboxylethylene)phenyl]-N2-(4-aminosulfonylphenyl)-5-fluoro-2,4-pyrimidinediamine]",IC50,[2],178 nM
"COC(=O)CNS(=O)(=O)c1cccc(Nc2ncc(F)c(Nc3ccc(OCc4cc(C)on4)cc3)n2)c1 [Compound I-215, 5-Fluoro-N2-[3-(N-methoxycarbonylmethylene)aminosulfonylphenyl]-N4-[4-(5-methylisoxazol-3-yl)methyleneoxyphenyl]-2,4-pyrimidinediamine]",IC50,[2],976 nM
"CN1C(=O)CSc2ccc(N(CC#N)c3nc(Nc4ccc(S(N)(=O)=O)cc4)ncc3F)cc21 [VII-47, N2-(4-Aminosulphonylphenyl)-N4-cyanomethyl-5-fluoro-N4-[3-oxo-4-methyl-benzo[1,4]thiazin-6-yl]-2,4-pyrimidinediamine]",IC50,[1],2670 nM
"COc1ccc(Nc2ncc(F)c(Nc3ccc(CN4CCS(=O)(=O)CC4)cc3)n2)cc1S(N)(=O)=O [III-112, N2-(3-Aminosulfonyl-4-methyloxyphenyl)-5-fluoro-N4-{4-[(1,1-dioxothiomorpholin-4-yl-)methyl]phenyl}-2,4-pyrimidinediamine]",IC50,[4],2480 nM
"CCNC(=O)NCc1cccc(Nc2nc(Nc3cccc(S(N)(=O)=O)c3)ncc2F)c1 [III-117, N2-(3-aminosulfonyl)phenyl-N4-(3-ethylaminocarbonylaminomethyl)phenyl-5-fluoro-2,4-pyrimidinediamine]",IC50,[4],397 nM
"CN(C)C(=O)COc1ccc(Nc2nc(Nc3ccc(S(N)(=O)=O)cc3)ncc2F)cc1 [Compound I-128, N2-(4-Aminosulfonylphenyl)-N4-(4-dimethylaminocarbonylmethoxyphenyl)-5-fluoro-2,4-pyrimidinediamine]",IC50,[3],871 nM
"CCC(=O)NS(=O)(=O)c1cccc(Nc2ncc(F)c(Nc3ccc(Cc4ccncc4)cc3)n2)c1 [III-69, 5-Fluoro-N4-[4-(4-pyridinylmethyl)phenyl]-N2-[(3-N-propanamido)sulfonylphenyl)]-2,4-pyrimidinediamine sodium salt]",IC50,[5],3320 nM
"CCC(=O)NS(=O)(=O)c1cc(Nc2ncc(F)c(Nc3ccc(OCc4cc(C)on4)cc3)n2)ccc1C [Compound I-228, 5-Fluoro-N4-[4-(5-methylisoxazol-3-yl)methyleneoxyphenyl]-N2-(4-methyl-3-propionylaminosulfonylphenyl)-2,4-pyrimidinediamine]",IC50,[2],3810 nM
"CN1CCN(S(=O)(=O)c2cccc(Nc3ncc(F)c(Nc4ccc(CC#N)cc4)n3)c2)CC1 [III-5, N4-(4-Cyanomethyl)phenyl-5-fluoro-N2-[3-(4-methylpiperazin-1-yl)sulfonyl]phenyl-2,4-pyrimidinediamine]",IC50,[2],4980 nM
"CNC(=O)COc1ccc(Nc2nc(Nc3cccc(S(N)(=O)=O)c3)ncc2F)cc1 [Compound I-144, N2-(3-Aminosulfonylphenyl)-5-fluoro-N4-(4-methylaminocarbonylmethoxyphenyl)-2,4-pyrimidinediamine]",IC50,[3],1010 nM
"CNS(=O)(=O)c1cccc(Nc2nc(Nc3cccc(S(N)(=O)=O)c3)ncc2F)c1 [IV-11, N2-(3-Aminosulfonylhenyl)-5-fluoro-N4-[3-(N-methylaminosulfonyl)phenyl]-2,4-pyrimidinediamine]",IC50,[4],367 nM
"C#CCOc1ccc(Nc2nc(Nc3ccc(C)c(S(=O)(=O)NC(=O)CC)c3)ncc2F)cc1 [VI-56, 5-Fluoro-N2-(4-methyl-3-propionylaminosulfonylphenyl)-N4-[4-(prop-2-ynyloxy)phenyl]-2,4-pyrimidinediamine]",IC50,[4],9660 nM
"CCn1nccc1NC(=O)Cc1ccc(Nc2nc(Nc3cccc(S(N)(=O)=O)c3)ncc2F)cc1 [III-51, N2-(3-Aminosulfonylphenyl)-N4-[(1-ethylpyrazolyl-5-aminocarbonylmethylene)phenyl]-5-fluoro-2,4-pyrimidinediamine]",IC50,[2],1010 nM
"NS(=O)(=O)c1cccc(Nc2ncc(F)c(Nc3ccc(C(=O)N4CCS(=O)(=O)CC4)cc3)n2)c1 [IX-37, N2-(3-Aminosulfonylphenyl)-N4-[4-(1,1-dioxo-4-thiomorpholinyl)carbonylphenyl]-5-fluoro-2,4-pyrimidinediamine]",IC50,[1],3700 nM
"C#CCNS(=O)(=O)c1cccc(Nc2nc(Nc3ccc(C)c(S(N)(=O)=O)c3)ncc2F)c1 [VI-79, N2-(3-Aminosulfonyl-4-methylphenyl)-5-fluoro-N4-[3-(prop-2-ynylaminosulfonyl)phenyl]-2,4-pyrimidinediamine]",IC50,[1],96 nM
"Cc1nc(COc2ccc(Nc3nc(Nc4cccc(S(=O)(=O)N5CCN(C)CC5)c4)ncc3F)cc2)no1 [Compound I-274, 5-Fluoro-N4-[4-(5-methyl-1,2,4-oxadiazol-3-yl)methoxy]phenyl-N2-[3-(4-methylpiperazin-1-yl)sulfonyl]phenyl-2,4-pyrimidinediamine]",IC50,[2],1170 nM
CCC(=O)NS(=O)(=O)c1cccc(Nc2ncc(F)c(Nc3ccc(Cc4ccncc4)cc3)n2)c1 [III-68],IC50,[2],3230 nM
"C#CCNS(=O)(=O)c1cccc(Nc2ncc(F)c(Nc3ccc(OCC#C)cc3)n2)c1 [VI-78, 5-Fluoro-N2-[3-(prop-2-ynylaminosulfonyl)phenyl]-N4-[4-(prop-2-ynyloxy)phenyl]-2,4-pyrimidinediamine]",IC50,[1],161 nM
